Experimental data: patent US20180015072A1, “Tryptophan is a pro-drug for infectious diseases and cancers” (priority 2016, published 2018)

Assays:
[1] = system: pancreatic cancer Mia PaCa2 cell; format: cell-based
[2] = system: Herpes simplex virus 1; format: cell-based
[3] = system: vaccinia virus; format: cell-based
[4] = system: human cytomegalovirus; format: cell-based
[5] = system: poliovirus; format: cell-based
[6] = system: rift valley fever virus; format: cell-based
[7] = system: tacaribe virus; format: cell-based
[8] = system: nun small cell lung cancer mice model; assay: nun small cell lung cancer mice model; format: in vivo; conditions: 80 mg/kg/day, China Tongi medical university
[9] = system: hand foot mouth disease mice model; assay: hand foot mouth disease mice model; format: in vivo; conditions: 320 mg/kg/day, China food and drug inspection Ins.
[10] = system: human primary white cells
[11] = system: yellow fever virus; format: cell-based
[12] = system: chikungunya viruses; format: cell-based
[13] = system: dengue viruses; format: cell-based
[14] = system: influenza A H1N1 viruses; format: cell-based
[15] = system: MERS coronavirus; format: cell-based
[16] = system: respiratory syncytial viruses; format: cell-based
[17] = system: Venezuelan equine encephalitis viruses; format: cell-based
[18] = system: hepatitis C virus; format: cell-based
[19] = system: hepatitis B; format: cell-based

| Compound | inhibition of Mia PaCa2 cell growth [1] | inhibition of Herpes simplex virus 1 [2] | inhibition of vaccinia virus [3] | inhibition of human cytomegalovirus [4] | inhibition of poliovirus [5] | inhibition of rift valley fever virus [6] | inhibition of tacaribe virus [7] | prevention and early stage treatment function in lung cancer mice model [8] | function in hand foot mouth disease mice model [9] | safety for human primary white cells [10] | inhibition of yellow fever virus [11] | inhibition of chikungunya viruses [12] | inhibition of dengue viruses [13] | inhibition of influenza A H1N1 viruses [14] | inhibition of MERS coronavirus [15] | inhibition of respiratory syncytial viruses [16] | inhibition of Venezuelan equine encephalitis viruses [17] | inhibition of hepatitis C virus [18] | function against hepatitis B [19] |
| --- | --- | --- | --- | --- | --- | --- | --- | --- | --- | --- | --- | --- | --- | --- | --- | --- | --- | --- | --- |
| N[C@@H](Cc1c[nH]c2ccccc12)C(=O)O [Tryptophan] | inhibit | inhibit | inhibit | inhibit | inhibit | inhibit | inhibit | significant prevention and early stage treatment function | significant function | safe | – | – | – | – | – | – | – | – | – |
| OC[C@H]1O[C@@H](Oc2c[nH]c3ccccc23)[C@H](O)[C@@H](O)[C@@H]1O [Indican] | inhibit | inhibit | inhibit | inhibit | inhibit | inhibit | inhibit | significant prevention and early stage treatment function | significant function | – | inhibits | inhibits | inhibits | inhibits | inhibits | inhibits | inhibits | inhibits | does not show function |
